Experimental data published in ChEMBL document CHEMBL3585239, “Two diseases, one approach: multitarget drug discovery in Alzheimer's and neglected tropical diseases” (Medchemcomm, 2014).
Activity calls are given as the source filed them. The rule behind the calls is not given here.

Columns and labels:
Acetylcholinesterase [1] = molecular target: T1, Acetylcholinesterase (Homo sapiens, UniProt P22303); experiment: Inhibition of human recombinant AChE using acetylthiocholine iodide as substrate after 20 mins by Ellmans method
T1 sequence (P22303 whole entry): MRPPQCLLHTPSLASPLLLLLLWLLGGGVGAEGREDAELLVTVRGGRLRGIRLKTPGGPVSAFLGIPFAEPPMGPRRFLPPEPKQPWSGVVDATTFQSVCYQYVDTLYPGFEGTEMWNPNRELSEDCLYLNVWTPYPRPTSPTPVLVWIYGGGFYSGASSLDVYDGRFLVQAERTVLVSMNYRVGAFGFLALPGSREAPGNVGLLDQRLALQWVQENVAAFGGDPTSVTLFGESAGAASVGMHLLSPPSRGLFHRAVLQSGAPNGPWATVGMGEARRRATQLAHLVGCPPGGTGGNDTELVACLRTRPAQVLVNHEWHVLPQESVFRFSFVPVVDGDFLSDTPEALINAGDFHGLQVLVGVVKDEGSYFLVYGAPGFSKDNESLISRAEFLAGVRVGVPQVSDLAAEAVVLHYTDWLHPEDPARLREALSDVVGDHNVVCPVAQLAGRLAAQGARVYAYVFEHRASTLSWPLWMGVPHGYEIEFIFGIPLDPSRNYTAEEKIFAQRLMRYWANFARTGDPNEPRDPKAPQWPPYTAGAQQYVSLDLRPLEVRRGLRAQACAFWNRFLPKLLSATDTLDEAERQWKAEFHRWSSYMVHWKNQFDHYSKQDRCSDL

[2] = molecular target: T2, Amyloid-beta precursor protein (Homo sapiens, UniProt P05067); experiment: Inhibition of self-mediated amyloid beta (1 to 42) aggregation (unknown origin) after 24 hrs by thioflavin T fluorometric assay
T2 sequence (P05067 whole entry): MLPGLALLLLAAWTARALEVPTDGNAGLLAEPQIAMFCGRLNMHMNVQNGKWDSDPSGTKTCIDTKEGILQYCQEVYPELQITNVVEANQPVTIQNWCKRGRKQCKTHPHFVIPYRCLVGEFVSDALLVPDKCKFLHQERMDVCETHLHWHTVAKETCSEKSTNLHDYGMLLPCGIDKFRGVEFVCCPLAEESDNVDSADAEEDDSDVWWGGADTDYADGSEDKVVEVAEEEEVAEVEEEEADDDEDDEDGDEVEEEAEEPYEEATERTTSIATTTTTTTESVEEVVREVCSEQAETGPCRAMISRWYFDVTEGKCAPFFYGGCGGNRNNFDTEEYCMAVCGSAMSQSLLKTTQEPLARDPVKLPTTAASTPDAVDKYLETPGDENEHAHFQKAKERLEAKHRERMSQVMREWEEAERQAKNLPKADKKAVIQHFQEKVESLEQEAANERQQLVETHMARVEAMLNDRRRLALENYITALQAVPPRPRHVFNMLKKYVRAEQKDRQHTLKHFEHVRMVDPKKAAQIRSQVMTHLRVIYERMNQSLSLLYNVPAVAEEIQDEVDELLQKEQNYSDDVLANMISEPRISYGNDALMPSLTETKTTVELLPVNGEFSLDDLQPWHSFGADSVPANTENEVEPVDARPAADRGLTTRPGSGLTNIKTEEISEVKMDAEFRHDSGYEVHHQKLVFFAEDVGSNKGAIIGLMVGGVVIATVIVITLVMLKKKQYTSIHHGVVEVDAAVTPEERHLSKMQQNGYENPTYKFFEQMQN

Acetylcholinesterase [3] = molecular target: T1, Acetylcholinesterase; experiment: Inhibition of human recombinant AChE using acetylthiocholine iodide as substrate after 20 mins by Ellmans method relative to dimebon
[4] = molecular target: T2, Amyloid-beta precursor protein; experiment: Inhibition of self-mediated amyloid beta (1 to 42) aggregation (unknown origin) at 10 uM after 24 hrs by thioflavin T fluorometric assay
[5] = molecular target: Glutamate NMDA receptor; GRIN1/GRIN2A (Homo sapiens, UniProt Q05586+Q12879); experiment: Inhibition of NMDA receptor (unknown origin) at 100 mV; type: protein-complex assay
Sequence of Glutamate NMDA receptor; GRIN1/GRIN2A (Q12879 whole entry, other chains not shown): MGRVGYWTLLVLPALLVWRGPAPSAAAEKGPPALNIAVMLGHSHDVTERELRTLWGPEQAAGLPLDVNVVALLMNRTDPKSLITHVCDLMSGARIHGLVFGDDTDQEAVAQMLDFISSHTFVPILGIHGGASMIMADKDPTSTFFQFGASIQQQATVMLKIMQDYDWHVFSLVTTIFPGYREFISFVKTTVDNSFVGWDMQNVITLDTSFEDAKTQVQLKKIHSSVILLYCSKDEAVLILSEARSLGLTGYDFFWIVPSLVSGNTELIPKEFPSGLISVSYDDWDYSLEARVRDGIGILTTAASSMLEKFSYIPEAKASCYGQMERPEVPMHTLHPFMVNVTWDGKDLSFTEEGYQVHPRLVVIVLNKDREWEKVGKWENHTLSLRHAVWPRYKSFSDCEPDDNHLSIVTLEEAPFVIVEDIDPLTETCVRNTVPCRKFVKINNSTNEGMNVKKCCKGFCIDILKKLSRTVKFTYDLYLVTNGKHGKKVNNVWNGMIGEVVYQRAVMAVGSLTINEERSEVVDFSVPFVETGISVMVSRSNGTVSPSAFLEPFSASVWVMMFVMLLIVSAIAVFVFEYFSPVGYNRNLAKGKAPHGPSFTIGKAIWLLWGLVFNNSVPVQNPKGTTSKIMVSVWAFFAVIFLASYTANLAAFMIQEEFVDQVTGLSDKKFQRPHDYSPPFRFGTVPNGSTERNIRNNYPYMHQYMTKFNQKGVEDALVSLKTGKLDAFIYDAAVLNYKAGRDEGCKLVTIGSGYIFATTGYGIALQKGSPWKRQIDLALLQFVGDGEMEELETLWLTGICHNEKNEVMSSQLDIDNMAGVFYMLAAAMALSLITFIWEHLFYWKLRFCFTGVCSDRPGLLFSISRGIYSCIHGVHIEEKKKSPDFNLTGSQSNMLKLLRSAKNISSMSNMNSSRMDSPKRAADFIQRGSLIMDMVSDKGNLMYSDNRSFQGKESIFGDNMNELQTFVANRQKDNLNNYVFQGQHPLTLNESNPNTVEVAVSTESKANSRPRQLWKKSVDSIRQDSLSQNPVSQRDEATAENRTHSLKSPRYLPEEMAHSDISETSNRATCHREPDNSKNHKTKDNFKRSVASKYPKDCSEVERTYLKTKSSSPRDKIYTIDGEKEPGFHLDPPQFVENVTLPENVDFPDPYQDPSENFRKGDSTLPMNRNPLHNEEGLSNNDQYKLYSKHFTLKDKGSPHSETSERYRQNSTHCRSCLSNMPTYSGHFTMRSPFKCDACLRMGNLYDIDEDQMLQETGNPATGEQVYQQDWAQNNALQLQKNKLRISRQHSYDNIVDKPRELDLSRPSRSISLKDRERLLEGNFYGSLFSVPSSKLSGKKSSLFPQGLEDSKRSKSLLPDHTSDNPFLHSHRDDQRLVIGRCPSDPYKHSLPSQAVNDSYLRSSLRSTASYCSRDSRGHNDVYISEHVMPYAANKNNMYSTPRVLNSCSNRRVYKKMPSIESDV

Trypanosoma brucei = experiment: Antitrypanosomal activity against Trypanosoma brucei; type: functional, organism-based
L6 = experiment: Cytotoxicity against rat L6 cells; type: cell-based
[6] = Inhibition of parasite-specific trypanothione reductase
[7] = Inhibition of Trypanosoma brucei GAPDH
[8] = tested on: Trypanosoma brucei rhodesiense; experiment: Antitrypanosomal activity against bloodstream forms of Trypanosoma brucei rhodesiense; type: functional; conditions: read-out: ED50 (the source's name)
[9] = Selectivity index, ratio of ED50 for mammalian cells to ED50 for Trypanosoma brucei rhodesiense; type: toxicity; conditions: read-out: Ratio ED50

`O=C(Cc1ccccc1Nc1c(Cl)cccc1Cl)NCCCNCCCNC1=CC(=O)C(NCCCNCCCNC(=O)Cc2ccccc2Nc2c(Cl)cccc2Cl)=CC1=O` showed an IC50 (Acetylcholinesterase [1]) of 600 nM and an IC50 [2] of 3110 nM.
`Cc1ccc2[nH]c3c(c2c1)CN(CCCCCCN1CCc2[nH]c4ccc(C)cc4c2C1)CC3` gave an IC50 (Acetylcholinesterase [1]) of 190 nM, a fold change (FC) (Acetylcholinesterase [3]) of 128 and an inhibition [4] of 35.6%. The IC50 [5] was 11000 nM.
In the case of `Cc1ccc2c(c1)c1c(n2CCc2ccc(C)nc2)CCN(C)C1` [LATREPIRDINE], the inhibition [4] is reported as “inactive” and the IC50 [5] is reported as 13900 nM.
`CN(C)CCCOc1ccc2oc(=O)c(-c3ccc(OC4=CC(=O)c5cc6ccccc6cc5C4=O)cc3)cc2c1` showed an EC50 (Trypanosoma brucei) of 26 nM and an Activity (L6) of 7.95 µM.
In the case of `CN(C)CCOc1cc2ccc(OC3=CC(=O)c4cc5ccccc5cc4C3=O)cc2oc1=O`, the Ki [6] is reported as 2700 nM and the IC50 [7] is reported as 5400 nM.
Work on `CCN(CCCCCCNC1=CC(=O)C(NCCCCCCN(CC)Cc2ccccc2OC)=CC1=O)Cc1ccccc1OC` [MEMOQUIN] yielded an IC50 (Acetylcholinesterase [1]) of 15400 nM.
With `O=C1C=C(Oc2ccccc2)C(=O)c2ccccc21` the EC50 [8] was 80 nM and the selectivity ratio [9] was 74.
With `Cc1ccc2[nH]c3c(c2c1)CN(CCCCCCCN1CCc2[nH]c4ccc(C)cc4c2C1)CC3` the IC50 (Acetylcholinesterase [1]) was 690 nM, the fold change (FC) (Acetylcholinesterase [3]) was 128 and the inhibition [4] was 35.2%. It also gave an IC50 [5] of 12600 nM.
